Source: US20240008487A1, “FUNGICIDAL COMPOSITIONS” (SYNGENTA CROP PROTECTION AG, priority 2020, published 2024)

Assays:
Conditions in all cases: alone
[1] = system: Glomerella lagenarium syn. Colletotrichum lagenarium; test: Glomerella lagenarium syn. Colletotrichum lagenarium (Anthracnose) liquid culture growth inhibition; format: cell-based
Description: (§1) Conidia of the fungus from cryogenic storage were directly mixed into nutrient broth (PDB potato dextrose broth). A DMSO solution of the test compounds was placed into a microtiter plate (96-well format) and the nutrient broth containing the fungal spores was added to it. The test plates were incubated at 24 C and the inhibition of growth was determined photometrically after 72 hrs at 620 nm.

Phakopsora pachyrhizi = Phakopsora pachyrhizi (Soybean Rust) on leaf disks of treated soybean plants; format: in vivo
Description: Whole soybean plants are treated with the recited active ingredients 4 weeks after planting. 1 day after spraying leaf disks are cut from the first trifoliate leaf. Five repetitions at each rate are conducted. The leaf disks are inoculated with Phakopsora pachyrhizi (Asian soybean rust) one day after treatment. Evaluation of the leaf disks is conducted 11 to 14 days after inoculation and the activity is derived from the relation of the treated vs untreated, infested check. The rates of the active ingredients used are given in Table as g active ingredient (a.i.)/ha.

Septoria tritici = Septoria tritici (Leaf Blotch) liquid culture growth inhibition; format: cell-based
Description: as §1, with “hrs.” for “hrs at 620 nm.”

Corynespora cassiicola = Corynespora cassiicola (Target Leaf Spot) liquid culture growth inhibition; format: cell-based
Description: as §1, with “3-4 days” for “72 hrs”

Septoria glycines = Septoria glycines (Brown Spot) liquid culture growth inhibition; format: cell-based
Description: as §1, with “visually” for “photometrically”, “hrs.” for “hrs at 620 nm.”

Botrytis cinerea = Botrytis cinerea (Gray Mould) liquid culture growth inhibition; format: cell-based
Description: as §1, with “hrs.” for “hrs at 620 nm.”

Sclerotinia sclerotiorum = Sclerotinia sclerotiorum (White Mold) liquid culture growth inhibition; format: cell-based
Description: as §1, with “Mycelial fragments” for “Conidia”, “fungus prepared” for “fungus”, “a fresh liquid culture” for “cryogenic storage”, “nm” for “nm.”

Q: What does the source list for `CNC(=O)C(F)(F)c1ccc(-c2noc(C(F)(F)F)n2)cc1` [2,2-Difluoro-N-methyl-2-[4-[5-(trifluoromethyl)-1,2,4-oxadiazol-3-yl]phenyl]acetamide]?
A: Observed Activity ([1]; 0.08 ppm): 20%; Observed Activity (Phakopsora pachyrhizi; 0.3 g/ha): 0%; Observed Activity (Phakopsora pachyrhizi; 0.6 g/ha): 4%; Observed Activity (Septoria tritici; 20 ppm): 20%

Q: Which results are given for `N#Cc1ccc(Oc2ccc(C(F)(F)C(O)(Cn3nc[nH]c3=S)c3ccc(F)cc3F)nc2)cc1` (stereo not shown) [4-[[6-[2-(2,4-Difluorophenyl)-1,1-difluoro-2-hydroxy-3-(5-thioxo-4H-1,2,4-triazol-1-yl)propyl]-3-pyridyl]oxy]benzonitrile]?
A: Observed Activity (Corynespora cassiicola; 0.5 ppm): 0%; Observed Activity (Corynespora cassiicola; 1 ppm): 0%; Observed Activity (Corynespora cassiicola; 2 ppm): 20%; Observed Activity (Phakopsora pachyrhizi; 30 g/ha): 0%; Observed Activity (Phakopsora pachyrhizi; 60 g/ha): 10%; Observed Activity (Septoria glycines; 1 ppm): 50%; Observed Activity (Septoria glycines; 2 ppm): 70%

Q: `CCC(=O)Oc1c(OC)ccnc1C(=O)N[C@@H](C)C(=O)O[C@@H](C)[C@@H](C)c1ccccc1C` [Compound A-1.2, [(1S,2S)-1-methyl-2-(o-tolyl)propyl] (2S)-2-[(4-methoxy-3-propanoyloxy-pyridine-2-carbonyl)amino]propanoate] was tested. Which “Observed Activity” value (Botrytis cinerea; 2 ppm) did it give?
A: 70%

Q: What about the “Observed Activity” value (Corynespora cassiicola; 0.06 ppm) of the same compound?
A: 0%

Q: And the “Observed Activity” value ([1]; 0.02 ppm)?
A: 0%

Q: What about the “Observed Activity” value ([1]; 0.1 ppm) of the same compound?
A: 0%

Q: What about the “Observed Activity” value ([1]; 0.2 ppm) of the same compound?
A: 0%

Q: What about the “Observed Activity” value (Phakopsora pachyrhizi; 0.3 g/ha) of the same compound?
A: 18%

Q: What about the “Observed Activity” value (Phakopsora pachyrhizi; 0.6 g/ha) of the same compound?
A: 55%

Q: And the “Observed Activity” value (Sclerotinia sclerotiorum; 0.02 ppm)?
A: 0%

Q: What about the “Observed Activity” value (Sclerotinia sclerotiorum; 0.1 ppm) of the same compound?
A: 0%

Q: And the “Observed Activity” value (Sclerotinia sclerotiorum; 0.2 ppm)?
A: 0%

Q: What about the “Observed Activity” value (Sclerotinia sclerotiorum; 2 ppm) of the same compound?
A: 70%

Q: What about the “Observed Activity” value (Septoria glycines; 0.03 ppm) of the same compound?
A: 20%

Q: What about the “Observed Activity” value (Septoria glycines; 0.06 ppm) of the same compound?
A: 20%

Q: And the “Observed Activity” value (Septoria tritici; 0.02 ppm)?
A: 20%

Q: What about the “Observed Activity” value (Septoria tritici; 0.03 ppm) of the same compound?
A: 50%

Q: And the “Observed Activity” value (Septoria tritici; 0.06 ppm)?
A: 70%

Q: And the “Observed Activity” value (Septoria tritici; 0.1 ppm)?
A: 70%

Q: `O=C(Nc1ccccc1F)c1ccc(-c2noc(C(F)(F)F)n2)cc1` [N-(2-fluorophenyl)-4-[5-(trifluoromethyl)-1,2,4-oxadiazol-3-yl]benzamide] was tested. Which “Observed Activity” value ([1]; 2.22 ppm) did it give?
A: 0%

Q: What about the “Observed Activity” value ([1]; 6.66 ppm) of the same compound?
A: 0%

Q: What about the “Observed Activity” value ([1]; 20 ppm) of the same compound?
A: 0%

Q: What about the “Observed Activity” value (Phakopsora pachyrhizi; 0.3 g/ha) of the same compound?
A: 0%

Q: What about the “Observed Activity” value (Phakopsora pachyrhizi; 0.6 g/ha) of the same compound?
A: 35%

Q: What about the “Observed Activity” value (Septoria tritici; 2.22 ppm) of the same compound?
A: 0%

Q: And the “Observed Activity” value (Septoria tritici; 6.66 ppm)?
A: 0%

Q: And the “Observed Activity” value (Septoria tritici; 20 ppm)?
A: 0%

Q: Which results are given for `CNC(=S)c1ccc(-c2noc(C(F)(F)F)n2)cc1` [N-methyl-4-[5-(trifluoromethyl)-1,2,4-oxadiazol-3-yl]benzenecarbothioamide]?
A: Observed Activity (Botrytis cinerea; 2.22 ppm): 0%; Observed Activity (Botrytis cinerea; 6.66 ppm): 20%; Observed Activity (Botrytis cinerea; 20 ppm): 70%; Observed Activity ([1]; 0.08 ppm): 70%; Observed Activity (Phakopsora pachyrhizi; 0.3 g/ha): 6%; Observed Activity (Phakopsora pachyrhizi; 0.6 g/ha): 74%; Observed Activity (Sclerotinia sclerotiorum; 20 ppm): 20%; Observed Activity (Septoria tritici; 2.22 ppm): 0%; Observed Activity (Septoria tritici; 6.66 ppm): 70%; Observed Activity (Septoria tritici; 20 ppm): 90%

Q: `CCN(C)C=Nc1cc(C)c(Oc2ccccc2)cc1Cl` [N′-(2-chloro-5-methyl-4-phenoxy-phenyl)-N-ethyl-N-methyl-formamidine] was tested. Which “Observed Activity” value (Phakopsora pachyrhizi; 1.5 g/ha) did it give?
A: 71%

Q: And the “Observed Activity” value (Phakopsora pachyrhizi; 3 g/ha)?
A: 71%

Q: And the “Observed Activity” value (Septoria glycines; 0.625 ppm)?
A: 70%

Q: And the “Observed Activity” value (Septoria tritici; 0.625 ppm)?
A: 20%

Q: Which results are given for `CCN(C)C=Nc1cc(C)c(Oc2ccccc2F)cc1Cl` [N′-[2-chloro-4-(2-fluorophenoxy)-5-methyl-phenyl]-N-ethyl-N-methyl-formamidine]?
A: Observed Activity (Phakopsora pachyrhizi; 1.5 g/ha): 46%; Observed Activity (Phakopsora pachyrhizi; 3 g/ha): 80%
